Measured values published in patent US20060094693A1, “Methods and compositions for treating glucose-associated conditions, metabolic syndrome, dyslipidemias and other conditions” (Point Therapeutics, Inc., priority 2004, published 2006).

Key:
Lewis rats = assay: in vivo; conditions: Lewis rats, single dose, 5 days observation
Description: Serum DPP-IV inhibition and observation of acute toxicity of amino boronic dipeptides in Lewis rats. […] After observations were completed or at the onset of a moribund state, humane euthanasia was performed by asphyxiation in 100% CO2.

[1] = target: T1, soluble recombinant human DPP-IV (Homo sapiens, UniProt P27487); assay: In vitro assay of enzymatic activity of recombinant soluble DPP-IV and inhibition by amino boronic dipeptides; type: biochemical; conditions: assayed 3 minutes, 78 minutes and 16 hours after addition of Ala-Pro-AFC
T1 construct: immunoglobulin kappa light chain secretion signal (pSecTag2-B) (N, cleaved yes); made in house; host or cells: 293T cells, transient transfection; unpurified culture supernatant used
Excerpt: Production of soluble recombinant human DPP-IV. Based on information on the N-terminus of serum DPP-IV (15), a truncated DPP-IV was engineered in which a signal/leader sequence was joined to the residue in DPP-IV corresponding to the N-terminus of serum DPP-IV to allow secretion. The cDNA encoding the desired truncated human DPP-IV dimer enzyme was engineered into the mammalian secretion vector pSecTag2 (Cat# V900-20, InVitrogen Corporation). The vector, available in A, B or C versions, representing three possible phases for gene fusion, contained an immunoglobulin-kappa light chain secretion signal followed by a selection of restriction sites for gene insertion. The fusion required engineering a restriction site upstream of the chosen fusion amino acid in the 5′ end of the DPP-IV dimer enzyme nucleic acid in phase with the chosen restriction site (Sfi I) in the vector secretion sequence. The chosen fusion amino acid in the 5′ end of the DPP-IV (Ser39) was 3′ of the trans-membrane anchoring domain. The pSecTag2 version B and its Sfi I restriction site was chosen for the fusion because it minimizes the additional N-terminal, vector-encoded residues in the mature secreted protein.
Construction of the fusion was as follows. First, total RNA was isolated from the Caco-2 colorectal carcinoma cell line (ATCC HTB-37) by standard Trizol/phenol/chloroform methodology. The purified RNA (approx. 2.5 μg in a 20 μl reaction) was used to make cDNA using oligo-dT primer and a commercial reverse transcription (RT) kit (InVitrogen). […] The following thermal cycler program was used: 94° C. for 45 sec. initial denaturation, then 30 cycles of 94° C., 10 sec.; 48° C., 6 sec.; 60° C., 4 min; followed by 5-min. extension at 72° C. after cycling.
DNA from the plasmid encoding DPP-IV dimer enzyme was prepared on an approximately 400 μg scale from overnight 30 ml cultures in Luria broth with 100 μg ampicillin per ml using a commercial kit (Qiagen Maxiprep Kit).
In vitro assay of enzmatic activity ofrecombinant soluble DPP-IV and inhibition by amino boronic dipeptides. The assay reaction mixture consisted of 135 μl 50 mM HEPES/Na buffer pH 7.6, 140 mM NaCl, 10-15 gl enzyme-containing culture supernatant, dipeptide substrate Ala-Pro-(7-amino-4-trifluoromethyl coumarin) (Ala-Pro-AFC; Enzyme System Products, Dublin, Calif.) at typically 0.1-1 mM added from a 100 or 400 mM stock in dimethyl formamide. The reaction mixture was incubated at room temperature, and production of the fluorescent AFC product was measured in a fluorometer (excitation, 400 nm; emission 505 nm), either by continuous monitoring or after termination with a one to one-tenth volume of 1 -M sodium acetate, pH 4.5. Fluorometric reading were made with a Molecular Dynamics Spectra Max GeminiXS capable of reading 96-well microtiter plates. The inhibitory activity of amino boronic dipeptides was investigated by preincubation of assay reaction mixtures with varying concentrations of each compound for 10 minutes before the addition of the substrate Ala-Pro-AFC.

[2] = tested on: human bone marrow stromal cells; assay: G-CSF supernatant levels in human bone marrow stromal cell cultures; type: cell-based; conditions: 1 to 10^4 nM, 24 hours
Description: Human bone marrow stromal cell cultures. Samples of normal human bone marrow were purchased from Cambrex Bioproducts (Walkersville, Md.) and mononuclear cells were purified over Ficoll-Hypaque (Nycomed, Oslo, Norway). Human stromal layers were established by seeding 4×10^7 mononuclear cells into T75 flasks (Corning) containing 20 ml MyeloCult medium (Stem Cell Technologies, Vancouver, BC) supplemented with 10^−6 M hydrocortisone (Sigma) and incubation at 37° C. in 100% humidified 5% CO2 in air. After one week, half the medium was exchanged, and the cultures incubated for approximately one week more, after which time, a semi-confluent cell layer was formed. Stromal cells were harvested by trypsinization using standard technique and 10^5 cells/well were seeded in multi-well plates in 1 ml of fully supplemented DMEM (InVitrogen, Carlsbad, Calif.). […] Multiwell cultures without the addition of amino boronic dipeptides served as controls. […] Supernatant concentrations of human G-CSF were determined by Quantikine enzyme-linked immunosorbent assay (ELISA; R&D Systems, Minneapolis, Minn.) according to the manufacturer's instructions. […] The effect of each amino boronic dipeptide on the level of supernatant G-CSF was determined by calculating a stimulation index (SI): SI=(mean G-CSF concentration in culture with amino boronic dipeptide)/(mean G-CSF concentration in control culture).

serum KC/CXCL1 = assay: Serum KC/CXCL1 levels in vivo (ELISA); set-up: species or system BALB/c mice; conditions: 0.2-200 μg/mouse oral, 2 hours
Description: Assay ofserum DPP-IV inhibition and KC/CXCL1 levels in vivo. […] Each mouse received a single administration of each amino boronic dipeptide or saline, and blood samples were withdrawn from mice 2 hours later.
Serum concentration of mouse KC/CXCL1 was determined by Quantikine enzyme-linked immunosorbent assay (ELISA; R&D Systems, Minneapolis, Minn.) according to the manufacturer's instructions. ELISA was performed in duplicate for each sample.

[3] = tested on: Zucker Diabetic Fatty (ZDF) rats; assay: 6 week glycemic control study in Zucker Diabetic Fatty rats; type: in vivo; conditions: Metformin group, day 14-15
Description: The design of the 6 week long study is depicted in FIG. 8. 60 male Zucker Diabetic Fatty (ZDF) rats (5 weeks of age) were obtained from Charles River Labs. The animals are housed singly and allowed to acclimatize for 1 week before the initiation of the study. 24-hour food intake and body weight was measured gravimetrically twice weekly from the start of housing. HbA1C levels were measured at Day 0, 7, 14, 28 and 46. OGTT was administered on Day 2-3, 15 minutes after the administration of the drugs. OGTT was administered again at the end of the study but in this case, drugs were given 15 hours prior to the OGTT. The 24-hour glucose profile was monitored at day 14-15 of the study.
The insulin sensitivity index was calculated at the termination of the study according to the method described by Matsuda and DeFronzo (Diabetes Care. 1999 Sep.;22(9):1462-70).

serum DPP-IV = target: T2, serum DPP-IV (Rattus norvegicus, UniProt P14740); assay: Serum DPP-IV inhibition in Lewis rats; type: in vivo; conditions: single oral administration, 2 hours
T2 construct: from tissue; host or cells: serum of Lewis rats dosed with the compounds
Description: Assay of serum DPP-IV inhibition in vivo. […] DPP-IV activity was determined by reaction of 10 μl serum with 90 μl of 0.11 mM Ala-Pro-AFC (Enzyme System Products, Dublin, Calif.) in 50 mM HEPES/Na buffer pH 7.6, 140 mM NaCl.

DPP-IV = DPP-IV (Homo sapiens, UniProt P27487); conditions: in vivo; cited from earlier work
Sequence of DPP-IV (P27487 whole entry, species assumed): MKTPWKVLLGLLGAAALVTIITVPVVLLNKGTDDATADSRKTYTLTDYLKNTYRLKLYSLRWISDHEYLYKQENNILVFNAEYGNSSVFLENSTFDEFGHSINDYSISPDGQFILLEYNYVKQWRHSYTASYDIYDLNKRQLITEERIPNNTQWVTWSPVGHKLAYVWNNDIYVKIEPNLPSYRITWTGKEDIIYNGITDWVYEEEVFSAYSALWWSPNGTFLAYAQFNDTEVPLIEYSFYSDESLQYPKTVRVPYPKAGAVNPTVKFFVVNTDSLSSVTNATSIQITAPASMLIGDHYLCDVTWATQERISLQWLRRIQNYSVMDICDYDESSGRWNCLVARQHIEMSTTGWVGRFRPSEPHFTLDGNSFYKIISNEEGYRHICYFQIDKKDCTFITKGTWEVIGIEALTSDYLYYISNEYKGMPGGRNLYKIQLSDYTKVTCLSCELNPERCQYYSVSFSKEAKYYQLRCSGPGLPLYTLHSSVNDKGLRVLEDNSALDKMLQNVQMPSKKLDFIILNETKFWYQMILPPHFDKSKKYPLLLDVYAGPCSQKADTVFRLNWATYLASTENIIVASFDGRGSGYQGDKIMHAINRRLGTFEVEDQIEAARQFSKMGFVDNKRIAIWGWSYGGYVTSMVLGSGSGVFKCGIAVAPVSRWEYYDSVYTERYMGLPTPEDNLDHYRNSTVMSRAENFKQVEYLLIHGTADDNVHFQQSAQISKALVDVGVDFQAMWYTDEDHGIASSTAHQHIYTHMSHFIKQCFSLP

T1 sequence (P27487 39-766 limits assumed): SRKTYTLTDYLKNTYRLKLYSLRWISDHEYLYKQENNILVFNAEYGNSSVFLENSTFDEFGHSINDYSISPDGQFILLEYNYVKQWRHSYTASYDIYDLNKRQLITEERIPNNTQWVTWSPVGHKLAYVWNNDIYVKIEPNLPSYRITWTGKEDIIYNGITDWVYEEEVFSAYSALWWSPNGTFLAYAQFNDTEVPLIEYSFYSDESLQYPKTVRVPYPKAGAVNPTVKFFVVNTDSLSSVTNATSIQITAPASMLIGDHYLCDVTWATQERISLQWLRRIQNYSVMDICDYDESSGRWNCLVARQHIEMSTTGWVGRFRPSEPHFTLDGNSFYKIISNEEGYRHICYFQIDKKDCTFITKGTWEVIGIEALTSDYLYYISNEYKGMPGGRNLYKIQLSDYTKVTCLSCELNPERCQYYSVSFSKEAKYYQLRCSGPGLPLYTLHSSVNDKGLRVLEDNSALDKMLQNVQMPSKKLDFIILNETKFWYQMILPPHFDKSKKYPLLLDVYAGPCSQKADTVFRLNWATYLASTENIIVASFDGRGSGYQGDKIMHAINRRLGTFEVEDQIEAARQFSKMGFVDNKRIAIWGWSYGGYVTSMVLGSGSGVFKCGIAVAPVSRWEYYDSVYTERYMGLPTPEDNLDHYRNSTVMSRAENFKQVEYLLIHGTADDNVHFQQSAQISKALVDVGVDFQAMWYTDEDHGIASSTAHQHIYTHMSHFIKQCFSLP
T2 sequence (P14740 37-767 limits assumed): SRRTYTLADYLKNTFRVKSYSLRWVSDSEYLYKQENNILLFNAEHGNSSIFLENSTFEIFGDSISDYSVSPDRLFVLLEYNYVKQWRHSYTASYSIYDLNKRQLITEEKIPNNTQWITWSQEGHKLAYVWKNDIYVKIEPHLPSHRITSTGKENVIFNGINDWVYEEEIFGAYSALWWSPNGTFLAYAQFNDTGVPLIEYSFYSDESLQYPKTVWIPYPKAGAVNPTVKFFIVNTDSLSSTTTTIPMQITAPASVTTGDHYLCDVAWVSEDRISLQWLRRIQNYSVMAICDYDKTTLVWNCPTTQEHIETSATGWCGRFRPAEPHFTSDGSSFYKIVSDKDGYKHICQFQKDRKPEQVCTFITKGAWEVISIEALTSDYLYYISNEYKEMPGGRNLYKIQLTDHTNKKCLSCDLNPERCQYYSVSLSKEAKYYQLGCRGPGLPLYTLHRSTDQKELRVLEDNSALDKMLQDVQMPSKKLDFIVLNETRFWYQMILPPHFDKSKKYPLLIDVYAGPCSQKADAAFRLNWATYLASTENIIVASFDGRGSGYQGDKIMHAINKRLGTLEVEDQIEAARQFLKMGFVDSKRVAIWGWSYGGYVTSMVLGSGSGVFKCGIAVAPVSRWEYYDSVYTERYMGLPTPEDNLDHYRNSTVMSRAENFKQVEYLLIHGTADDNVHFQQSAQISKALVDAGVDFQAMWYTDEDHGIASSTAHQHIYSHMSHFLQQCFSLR

C[C@H](N)C(=O)N1CCC[C@H]1B(O)O [Ala-boroPro]
MTD (maximum tolerated dose) (Lewis rats): ≧2,000 μg/kg

NC(N)=NCCC[C@H](N)C(=O)N1CCC[C@H]1B(O)O [Arg-boroPro]
persistence of DPP-IV inhibition after preincubation [1]: more rapidly reversible | MTD (maximum tolerated dose) (Lewis rats): ≧2,000 μg/kg

NC(=O)CC[C@H](N)C(=O)N1CCC[C@H]1B(O)O [Gln-boroPro]
MTD (maximum tolerated dose) (Lewis rats): ≧800 μg/kg

CC[C@H](C)[C@H](N)C(=O)N1CCC[C@H]1B(O)O [Ile-boroPro]
persistence of DPP-IV inhibition after preincubation [1]: sustained DPP-IV inhibition | supernatant G-CSF level (stimulation index) [2]: stimulate increased levels of G-CSF | MTD (maximum tolerated dose) (Lewis rats): 120 µg/kg | serum levels of KC/CXCL1 (serum KC/CXCL1): stimulate increased serum levels of KC/CXCL1 in a dose-dependent manner

CC(C)C[C@H](N)C(=O)N1CCC[C@H]1B(O)O [Leu-boroPro]
persistence of DPP-IV inhibition after preincubation [1]: more rapidly reversible | supernatant G-CSF level (stimulation index) [2]: stimulate increased levels of G-CSF | MTD (maximum tolerated dose) (Lewis rats): 200 µg/kg | serum levels of KC/CXCL1 (serum KC/CXCL1): stimulate increased serum levels of KC/CXCL1 in a dose-dependent manner

NCCCC[C@H](N)C(=O)N1CCC[C@H]1B(O)O [Lys-boroPro]
persistence of DPP-IV inhibition after preincubation [1]: more rapidly reversible | MTD (maximum tolerated dose) (Lewis rats): ≧2,000 μg/kg

CSCC[C@H](N)C(=O)N1CCC[C@H]1B(O)O [Met-boroPro]
MTD (maximum tolerated dose) (Lewis rats): 160 µg/kg

CN(C)C(=N)N=C(N)N [Metformin, reference compound]
AUC of 24 hour glucose profile [3]: achieve significance

N[C@@H](Cc1ccccc1)C(=O)N1CCC[C@H]1B(O)O [Phe-boroPro]
persistence of DPP-IV inhibition after preincubation [1]: more rapidly reversible

O=C(C1CCCN1)N1CCCC1B(O)O (stereo not shown) [Pro-boroPro]
persistence of DPP-IV inhibition after preincubation [1]: more rapidly reversible | MTD (maximum tolerated dose) (Lewis rats): ≧2,000 μg/kg

N[C@@H](CO)C(=O)N1CCC[C@H]1B(O)O [Ser-boroPro]
MTD (maximum tolerated dose) (Lewis rats): 4,000 μg/kg

C[C@@H](O)[C@H](N)C(=O)N1CCC[C@H]1B(O)O [Thr-boroPro]
MTD (maximum tolerated dose) (Lewis rats): 800 µg/kg

CC(C)[C@H](N)C(=O)N1CCC[C@H]1B(O)O [Val-boroPro]
ID50 (dose causing 50% reduction in serum DPP-IV activity) (serum DPP-IV): 0.009 mg/kg | MTD (maximum tolerated dose) (Lewis rats): 20 µg/kg | serum levels of KC/CXCL1 (serum KC/CXCL1): stimulate increased serum levels of KC/CXCL1 in a dose-dependent manner

gastric inhibitory protein [GIP]
t1/2 of N-terminal degradation (DPP-IV): ~1 min
